Patent US12576167B2, “Gadolinium-based compound, method for producing same, and MRI contrast agent containing same” (KYUNGPOOK NATIONAL UNIVERSITY INDUSTRY-ACADEMIC COOPERATION …, priority 2020, dated 2026)

What was measured:
[1] = Measurement of relaxivity (r1, r2), phantom in 3 T MRI; assay type: physicochemical; conditions: 0.0625-1 mM in tertiary distilled water, linear regression, in mM-1 s-1 (unit assumed)
Protocol: Relaxivity (r1, r2) of each of Gd-DO3A-Ga synthesized using the method according to Present Example 2, and Gadovist® and Dotarem® as commercial cyclic contrast agents as comparative groups.
Specifically, a phantom was prepared by diluting the gadolinium complex to 5 concentrations (0.0625, 0.125, 0.25, 0.5, 1 mM) using tertiary distilled water, and then T1 and T2 relaxation times thereof were measured in 3 T MRI. Thus, R (relaxivity=1/T) thereof at each of the concentrations was calculated and a result of the relaxivity of the gadolinium complex was obtained via linear regression analysis. (See following Table 1 and FIG. 5)

[2] = target: amyloid beta polymer (oligomeric Aβ) (Homo sapiens, UniProt P05067); assay: Phantom test for targeting ability toward amyloid beta polymer, 9.4 T MR; assay type: binding; conditions: amyloid beta polymer incubated with contrast agent at 37° C. for 24 hours, washed pellet, FIG. 7
amyloid beta polymer (oligomeric Aβ), sequence (P05067 672-713 limits assumed): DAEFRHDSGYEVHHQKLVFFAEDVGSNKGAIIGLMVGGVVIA
Protocol: HFIP (221.5 μl) was added to amyloid beta (1 mg, 1 mM) to produce a mixture which in turn was shaken for 1 hour at room temperature using a shaker to remove preaggregation. Next, the amyloid beta from which the pre-aggregation was removed was dried. Then, DMSO (221.5 μl) was added thereto to adjust a concentration thereof to 1 mM. Then, a suspension thereof was produced using a mixer and a sonicator, and PBS (1×, pH 7.4, 878.5 μl) was added to the suspension to adjust a concentration of the suspension to 0.2 mM. Thereafter, the suspension was subjected to incubation for 4 days at 37° C. using a shaker. Then, amyloid beta polymer (oligomeric Aβ) that has been polymerized was dispensed by 200 μl. Then, a further mixed solution in which the compound Gd-DO3A-Ga was dissolved in PBS at a concentration of 2 mM was added thereto at 20 μl amount. A further mixed solution in which the commercial contrast agent (Gadovist®) was dissolved in PBS at a concentration of 2 mM was added thereto at 20 μl amount. Then, each of two resulting mixtures was incubated at 37° C. for 24 hours using a shaker. After completion of the incubation, a supernatant was removed therefrom via centrifugation, and then the amyloid beta polymer was washed with PBS, and then 200 μl of PBS:DMSO=9:1 solution was added to a pellet thereof to prepare MRI phantom samples. […]

Row | Structure (SMILES) | relaxivity r1 [1] | relaxivity r2 [1] | MR signal intensity (contrast enhancement effect) of phantom versus control incubated only with amyloid beta polymer [2]
1 | CNC[C@H](O)[C@@H](O)[C@H](O)[C@H](O)CO.O=C([O-])CN1CCN(CC(=O)[O-])CCN(CC(=O)O)CCN(CC(=O)[O-])CC1.[Gd+3] [Dotarem ®] | 3.40 ± 0.07 | 3.88 ± 0.16 | –
2 | O=C([O-])CN1CCN(CC(=O)[O-])CCN([C@H](CO)[C@H](O)CO)CCN(CC(=O)[O-])CC1.[Gd+3] (racemic) [Gadovist ®] | 3.85 ± 0.09 | 4.87 ± 0.11 | no significant difference
